Source: patent US9139523B2, “5-HT2B receptor antagonists” (Janssen Pharmaceutica, NV, priority 2010, dated 2015)

System: anesthetized guinea-pig
Assay: Cardiovascular effects in the anaesthetized guinea-pig
Assay type: in vivo
Description: Female guinea-pigs were anesthetized with sodium pentobarbital (66 mg/kg i.p.) followed by a continuous i.v. infusion of 6 mg/h of sodium pentobarbital and prepared for measurements of the surface electrocardiogram (ECG), heart rate and mean arterial blood pressure (see De Clerck et al, Fundam. Clin. Pharm.; 2002; 16: 125-140). Compound (−)-17 was dissolved in 20% hydroxypropyl-cyclodextrin with NaOH, HCl and mannitol in pyrogen-free water and administered intravenously (0.5 ml/kg) in increasing doses (0.16, 0.32, 0.64, 1.25, 2.5 and 5 mg/kg) over a period of 5 min at 15-min intervals. Plasma concentrations of Compound (−)-17 were measured at the end of each infusion. Corresponding volumes of vehicle were administered according to the same protocol in a second group of animals.

[1] = guinea pig i.v. 0.64 mg/kg @ 5′
[2] = guinea pig i.v. 0.64 mg/kg @ 15′
[3] = guinea pig i.v. 1.25 mg/kg @ 2′
[4] = guinea pig i.v. 1.25 mg/kg @ 5′
[5] = guinea pig i.v. 1.25 mg/kg @ 15′
[6] = guinea pig i.v. 2.5 mg/kg @ 15′

## COc1cc(N)c(Cl)cc1C(=O)NC1CCN(CCCOc2ccc(F)cc2)CC1(F)F (single isomer, unassigned) [Compound (−)-17, 4-amino-5-chloro-N-{3,3-difluoro-1-[3-(4-fluorophenoxy)-propyl]-piperidin-4-yl}-2-methoxybenzamide]
[1]
  PQ, percentage change relative to baseline: 5%
  QRS, percentage change relative to baseline: −5%
  QT, percentage change relative to baseline: 5%
  QTc B, percentage change relative to baseline: 2%
[2]
  HR, percentage change relative to baseline: −5%
  MBP, percentage change relative to baseline: −5%
  PQ, percentage change relative to baseline: 4%
  QRS, percentage change relative to baseline: −3%
  QT, percentage change relative to baseline: 8%
  QTc B, percentage change relative to baseline: 4%
[3]
  HR, percentage change relative to baseline: −7%
  MBP, percentage change relative to baseline: 4%
  PQ, percentage change relative to baseline: 5%
  QRS, percentage change relative to baseline: −2%
  QT, percentage change relative to baseline: 8%
  QTc B, percentage change relative to baseline: 4%
[4]
  HR, percentage change relative to baseline: −7%
  MBP, percentage change relative to baseline: 15%
  PQ, percentage change relative to baseline: 6%
  QRS, percentage change relative to baseline: 0%
  QT, percentage change relative to baseline: 6%
  QTc B, percentage change relative to baseline: 2%
[5]
  HR, percentage change relative to baseline: 0%
  MBP, percentage change relative to baseline: 9%
  PQ, percentage change relative to baseline: 6%
  QRS, percentage change relative to baseline: −3%
  QT, percentage change relative to baseline: 2%
  QTc B, percentage change relative to baseline: 3%
Guinea pig i.v. 2.5 mg/kg @ 2′
  HR, percentage change relative to baseline: −5%
  PQ, percentage change relative to baseline: 7%
  QRS, percentage change relative to baseline: −3%
  QT, percentage change relative to baseline: 6%
  QTc B, percentage change relative to baseline: 4%
Guinea pig i.v. 2.5 mg/kg @ 5′
  HR, percentage change relative to baseline: −6%
  MBP, percentage change relative to baseline: 21%
  PQ, percentage change relative to baseline: 7%
  QRS, percentage change relative to baseline: −3%
  QT, percentage change relative to baseline: 6%
  QTc B, percentage change relative to baseline: 3%
[6]
  HR, percentage change relative to baseline: −4%
  MBP, percentage change relative to baseline: 8%
  PQ, percentage change relative to baseline: 8%
  QRS, percentage change relative to baseline: 0%
  QT, percentage change relative to baseline: 6%
  QTc B, percentage change relative to baseline: 5%
Guinea pig i.v. 5 mg/kg @ 2′
  HR, percentage change relative to baseline: −3%
  PQ, percentage change relative to baseline: 6%
  QRS, percentage change relative to baseline: −2%
  QT, percentage change relative to baseline: 7%
  QTc B, percentage change relative to baseline: 5%
Guinea pig i.v. 5 mg/kg @ 5′
  HR, percentage change relative to baseline: −3%
  PQ, percentage change relative to baseline: 6%
  QRS, percentage change relative to baseline: 0%
  QT, percentage change relative to baseline: 3%
  QTc B, percentage change relative to baseline: 2%
Guinea pig, 0.16 up to 5 mg/kg i.v., relative to vehicle
  effect on heart rate, duration of PQ, QRS, QT and QTcB intervals, ECG morphology: no relevant effect
Guinea pig, from 2.5 mg/kg i.v. onwards
  mean arterial blood pressure: started to increase
